{"source": "paper PMC7316778", "about": "(Nature Communications, 2020)", "key": {"DCAMKL1 (DCLK1)": {"target": "T1, DCAMKL1 (DCLK1) (Homo sapiens, UniProt O15075)", "T1 sequence (O15075 1-740)": "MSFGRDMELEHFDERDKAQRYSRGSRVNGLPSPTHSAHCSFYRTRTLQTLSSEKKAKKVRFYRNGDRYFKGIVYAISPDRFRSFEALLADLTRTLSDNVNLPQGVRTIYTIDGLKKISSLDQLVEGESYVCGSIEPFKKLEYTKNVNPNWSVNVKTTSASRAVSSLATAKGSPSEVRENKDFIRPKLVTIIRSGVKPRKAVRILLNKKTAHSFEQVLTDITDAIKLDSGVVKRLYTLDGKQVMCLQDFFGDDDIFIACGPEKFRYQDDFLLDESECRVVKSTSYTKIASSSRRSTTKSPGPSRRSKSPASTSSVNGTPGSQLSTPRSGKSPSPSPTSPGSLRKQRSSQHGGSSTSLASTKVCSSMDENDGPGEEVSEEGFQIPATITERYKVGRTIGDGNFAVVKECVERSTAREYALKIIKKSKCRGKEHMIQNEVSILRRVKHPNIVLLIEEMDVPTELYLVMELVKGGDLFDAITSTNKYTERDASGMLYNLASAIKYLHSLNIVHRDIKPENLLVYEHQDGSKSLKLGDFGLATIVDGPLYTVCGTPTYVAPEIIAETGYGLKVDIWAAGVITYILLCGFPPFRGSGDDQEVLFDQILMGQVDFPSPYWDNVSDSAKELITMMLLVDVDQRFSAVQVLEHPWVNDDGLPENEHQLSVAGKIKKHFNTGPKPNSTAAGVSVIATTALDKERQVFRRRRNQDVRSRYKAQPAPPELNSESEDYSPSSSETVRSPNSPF", "assay": "SelectScreen kinase assay"}, "MAP3K5 (ASK1)": {"target": "T2, MAP3K5 (ASK1) (Homo sapiens, UniProt Q99683)", "T2 sequence (Q99683 1-1374)": "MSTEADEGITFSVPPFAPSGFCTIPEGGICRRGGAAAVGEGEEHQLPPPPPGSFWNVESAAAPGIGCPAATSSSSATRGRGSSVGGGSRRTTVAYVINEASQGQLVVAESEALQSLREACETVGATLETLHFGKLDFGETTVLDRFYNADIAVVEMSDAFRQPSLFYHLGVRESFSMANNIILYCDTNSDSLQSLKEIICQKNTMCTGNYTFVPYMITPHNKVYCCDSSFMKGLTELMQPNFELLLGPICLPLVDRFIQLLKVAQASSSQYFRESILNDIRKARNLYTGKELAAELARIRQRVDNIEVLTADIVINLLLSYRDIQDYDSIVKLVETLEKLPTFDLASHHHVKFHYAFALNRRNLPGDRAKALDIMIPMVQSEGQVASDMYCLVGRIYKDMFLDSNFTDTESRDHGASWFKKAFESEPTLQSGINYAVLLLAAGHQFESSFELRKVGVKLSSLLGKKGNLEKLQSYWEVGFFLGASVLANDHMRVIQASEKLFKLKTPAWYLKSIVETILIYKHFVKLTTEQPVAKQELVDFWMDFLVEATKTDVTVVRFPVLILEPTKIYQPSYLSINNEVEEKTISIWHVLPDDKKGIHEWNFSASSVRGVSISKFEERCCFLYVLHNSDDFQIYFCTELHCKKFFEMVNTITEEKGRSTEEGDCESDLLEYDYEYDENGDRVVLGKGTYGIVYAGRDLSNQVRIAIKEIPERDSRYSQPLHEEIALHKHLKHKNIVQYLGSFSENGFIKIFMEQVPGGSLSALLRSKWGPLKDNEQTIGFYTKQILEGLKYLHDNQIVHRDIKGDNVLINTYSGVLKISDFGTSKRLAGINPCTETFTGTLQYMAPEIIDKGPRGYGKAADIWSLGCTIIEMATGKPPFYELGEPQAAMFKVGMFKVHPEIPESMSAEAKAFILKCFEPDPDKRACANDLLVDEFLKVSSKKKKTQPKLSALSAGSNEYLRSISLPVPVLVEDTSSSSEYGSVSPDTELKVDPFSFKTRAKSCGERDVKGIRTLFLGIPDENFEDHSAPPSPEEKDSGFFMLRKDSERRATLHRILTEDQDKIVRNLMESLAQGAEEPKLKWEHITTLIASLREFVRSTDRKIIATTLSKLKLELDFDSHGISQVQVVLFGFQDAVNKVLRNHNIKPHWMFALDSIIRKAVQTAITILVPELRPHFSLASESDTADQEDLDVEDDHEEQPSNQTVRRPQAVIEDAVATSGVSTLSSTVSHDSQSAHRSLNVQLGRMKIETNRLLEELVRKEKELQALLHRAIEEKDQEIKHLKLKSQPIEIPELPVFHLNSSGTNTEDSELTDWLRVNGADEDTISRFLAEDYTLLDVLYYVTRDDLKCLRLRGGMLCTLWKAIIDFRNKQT", "assay": "SelectScreen kinase assay"}, "MASTL": {"target": "MASTL (Homo sapiens, UniProt Q96GX5)", "sequence (Q96GX5 whole entry)": "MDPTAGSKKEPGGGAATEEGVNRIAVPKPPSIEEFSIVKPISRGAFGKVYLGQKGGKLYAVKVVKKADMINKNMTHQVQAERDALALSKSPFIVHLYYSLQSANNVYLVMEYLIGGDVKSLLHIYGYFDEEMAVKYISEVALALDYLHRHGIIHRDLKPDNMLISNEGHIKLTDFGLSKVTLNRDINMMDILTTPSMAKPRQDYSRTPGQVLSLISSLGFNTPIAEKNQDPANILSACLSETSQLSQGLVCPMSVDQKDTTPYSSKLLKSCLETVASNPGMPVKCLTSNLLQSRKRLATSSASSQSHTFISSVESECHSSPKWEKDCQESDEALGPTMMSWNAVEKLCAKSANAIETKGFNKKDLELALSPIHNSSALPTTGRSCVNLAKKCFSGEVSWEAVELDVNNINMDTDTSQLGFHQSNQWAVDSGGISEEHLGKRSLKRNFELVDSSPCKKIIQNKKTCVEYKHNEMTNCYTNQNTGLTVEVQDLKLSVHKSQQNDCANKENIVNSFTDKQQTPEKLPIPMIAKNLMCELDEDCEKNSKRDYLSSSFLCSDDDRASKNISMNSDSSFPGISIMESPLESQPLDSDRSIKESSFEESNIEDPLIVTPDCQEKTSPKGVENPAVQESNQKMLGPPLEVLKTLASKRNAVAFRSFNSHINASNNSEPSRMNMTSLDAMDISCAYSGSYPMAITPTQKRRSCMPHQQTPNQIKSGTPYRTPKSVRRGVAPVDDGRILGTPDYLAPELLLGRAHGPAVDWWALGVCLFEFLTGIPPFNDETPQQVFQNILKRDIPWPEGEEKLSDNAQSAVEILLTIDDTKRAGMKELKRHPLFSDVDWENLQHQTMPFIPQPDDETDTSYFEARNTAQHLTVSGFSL", "assay": "SelectScreen kinase assay"}, "MERTK (cMER)": {"target": "MERTK (cMER) (Homo sapiens, UniProt Q12866)", "sequence (Q12866 21-999)": "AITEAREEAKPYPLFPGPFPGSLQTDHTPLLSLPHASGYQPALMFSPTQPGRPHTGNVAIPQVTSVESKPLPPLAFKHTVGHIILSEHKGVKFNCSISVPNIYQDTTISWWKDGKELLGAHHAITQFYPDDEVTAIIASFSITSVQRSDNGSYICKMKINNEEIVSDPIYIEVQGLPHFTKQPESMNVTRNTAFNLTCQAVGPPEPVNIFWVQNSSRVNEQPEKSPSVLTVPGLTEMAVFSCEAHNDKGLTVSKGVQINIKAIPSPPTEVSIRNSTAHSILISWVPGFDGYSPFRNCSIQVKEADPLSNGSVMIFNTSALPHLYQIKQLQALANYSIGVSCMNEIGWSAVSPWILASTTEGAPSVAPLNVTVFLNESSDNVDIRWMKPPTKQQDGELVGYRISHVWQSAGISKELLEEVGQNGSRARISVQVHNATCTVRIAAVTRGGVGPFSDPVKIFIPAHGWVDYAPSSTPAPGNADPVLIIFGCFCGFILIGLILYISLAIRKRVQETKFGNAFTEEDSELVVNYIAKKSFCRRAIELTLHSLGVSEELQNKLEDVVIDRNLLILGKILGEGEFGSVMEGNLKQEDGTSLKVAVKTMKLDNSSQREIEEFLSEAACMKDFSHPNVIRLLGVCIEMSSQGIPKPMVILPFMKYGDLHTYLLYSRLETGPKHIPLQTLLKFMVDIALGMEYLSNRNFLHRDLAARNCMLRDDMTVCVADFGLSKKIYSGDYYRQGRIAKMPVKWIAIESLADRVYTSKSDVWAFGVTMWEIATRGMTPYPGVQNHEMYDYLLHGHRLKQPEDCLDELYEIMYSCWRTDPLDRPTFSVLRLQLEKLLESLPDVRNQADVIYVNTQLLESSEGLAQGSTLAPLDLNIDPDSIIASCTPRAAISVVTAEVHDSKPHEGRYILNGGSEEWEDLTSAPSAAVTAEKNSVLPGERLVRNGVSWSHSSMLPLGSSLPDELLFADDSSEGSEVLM", "assay": "SelectScreen kinase assay"}, "STK33": {"target": "STK33 (Homo sapiens, UniProt Q9BYT3)", "sequence (Q9BYT3 whole entry, species assumed)": "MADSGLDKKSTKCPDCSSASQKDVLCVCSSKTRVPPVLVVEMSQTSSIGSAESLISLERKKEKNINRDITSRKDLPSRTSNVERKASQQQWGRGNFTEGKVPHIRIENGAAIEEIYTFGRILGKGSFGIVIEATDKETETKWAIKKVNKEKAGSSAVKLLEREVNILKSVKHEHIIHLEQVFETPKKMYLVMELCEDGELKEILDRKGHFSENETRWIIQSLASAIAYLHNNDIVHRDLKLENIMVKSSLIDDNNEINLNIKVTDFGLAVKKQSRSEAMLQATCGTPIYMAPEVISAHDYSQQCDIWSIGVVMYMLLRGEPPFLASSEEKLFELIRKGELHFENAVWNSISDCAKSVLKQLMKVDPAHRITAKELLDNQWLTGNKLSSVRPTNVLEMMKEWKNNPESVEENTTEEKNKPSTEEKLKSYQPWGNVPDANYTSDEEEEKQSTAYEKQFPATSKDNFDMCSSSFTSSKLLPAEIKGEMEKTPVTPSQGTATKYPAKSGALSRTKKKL", "assay": "SelectScreen kinase assay"}, "~40 kDa protein": {"target": "~40 kDa protein (Homo sapiens, UniProt P28482)", "sequence (P28482 2-360)": "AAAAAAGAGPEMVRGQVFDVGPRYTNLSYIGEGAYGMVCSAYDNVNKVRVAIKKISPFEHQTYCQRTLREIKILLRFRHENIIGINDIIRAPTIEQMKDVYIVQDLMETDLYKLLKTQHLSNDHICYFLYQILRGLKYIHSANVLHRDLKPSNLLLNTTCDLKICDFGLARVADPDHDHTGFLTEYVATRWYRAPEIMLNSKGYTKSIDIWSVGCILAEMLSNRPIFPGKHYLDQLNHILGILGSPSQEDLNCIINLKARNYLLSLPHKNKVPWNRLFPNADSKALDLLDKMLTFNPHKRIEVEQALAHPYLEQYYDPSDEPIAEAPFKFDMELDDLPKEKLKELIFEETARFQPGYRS", "assay": "Gel-based target engagement in HL-60 neutrophils", "settings": "HL-60, read-out: Inhibition of off-target labeling"}, "[1]": {"settings": "1 h, 1 μM WEL028, 1 h preincubation"}}, "note": "“And” between values parts separate entries of the source, which are not always exact repeats. Identical values can stand only once. Like-named read-outs stand apart in the source and are kept apart here.", "data": [{"smiles": "C#CCOc1ccc(Nc2ncc(Cl)c(Nc3ccccc3NC(=O)C=C)n2)c(OC)c1", "note": "[Compound 6]", "values": [{"measurement": "Inhibition (%)", "setting": "DCAMKL1 (DCLK1); 1 μM WEL028, 1 h preincubation", "value": 4, "unit": "%"}, {"measurement": "Inhibition at 1 µM (%)", "setting": "DCAMKL1 (DCLK1); DCAMKL1 (DCLK1), 1 µM, ZLYTE, ATP Km app, listed as WEL028, 1 µM", "value": 5, "unit": "%"}, {"measurement": "inhibition at 1 µM", "setting": "DCAMKL1 (DCLK1); read-out: Inhibition at 1 µM (%), DCAMKL1 (DCLK1), 1 µM, ZLYTE, ATP Km app", "value": 3, "unit": "%"}, {"measurement": "inhibition at 1 µM", "setting": "MAP3K5 (ASK1); [1]", "value": 6, "unit": "%"}, {"measurement": "Inhibition at 1 µM (%)", "setting": "MAP3K5 (ASK1); MAP3K5 (ASK1), 1 µM, LanthaScreen Binding, listed as WEL028, 1 µM", "value": 8, "unit": "%"}, {"measurement": "inhibition at 1 µM", "setting": "MAP3K5 (ASK1); read-out: Inhibition at 1 µM (%), MAP3K5 (ASK1), 1 µM, LanthaScreen Binding", "value": 5, "unit": "%"}, {"measurement": "Inhibition (%)", "setting": "MASTL; 1 μM WEL028, 1 h preincubation", "value": 3, "unit": "%"}, {"measurement": "Inhibition at 1 µM (%)", "setting": "MASTL; MASTL, 1 µM, LanthaScreen Binding, listed as WEL028, 1 µM", "value": "6% and 0%"}, {"measurement": "inhibition at 1 µM", "setting": "MERTK (cMER); [1]", "value": 4, "unit": "%"}, {"measurement": "Inhibition at 1 µM (%)", "setting": "MERTK (cMER); MERTK (cMER), 1 µM, ZLYTE, ATP Km app, listed as WEL028, 1 µM", "value": "0% and 9%"}, {"measurement": "IC50", "setting": "STK33", "value": 1000, "unit": "nM"}, {"measurement": "Inhibition at 1 µM (%)", "setting": "STK33; 1 µM, LanthaScreen Binding, listed as WEL028, 1 µM", "value": 61, "unit": "%"}, {"measurement": "inhibition at 1 µM", "setting": "STK33; [1]", "value": 60, "unit": "%"}, {"measurement": "inhibition at 10 µM", "setting": "STK33; 1 h, log[inhibitor] (M) -5.00, LanthaScreen Binding", "value": 33, "unit": "%"}, {"measurement": "inhibition at 3.311 µM", "setting": "STK33; 1 h, log[inhibitor] (M) -5.48, LanthaScreen Binding", "value": 58, "unit": "%"}, {"measurement": "inhibition at 1.122 µM", "setting": "STK33; 1 h, log[inhibitor] (M) -5.95, LanthaScreen Binding", "value": 69, "unit": "%"}, {"measurement": "inhibition at 0.3715 µM", "setting": "STK33; 1 h, log[inhibitor] (M) -6.43, LanthaScreen Binding", "value": 43, "unit": "%"}, {"measurement": "inhibition at 0.123 µM", "setting": "STK33; 1 h, log[inhibitor] (M) -6.91, LanthaScreen Binding", "value": 23, "unit": "%"}, {"measurement": "inhibition at 0.04074 µM", "setting": "STK33; 1 h, log[inhibitor] (M) -7.39, LanthaScreen Binding", "value": 19, "unit": "%"}, {"measurement": "inhibition at 0.0138 µM", "setting": "STK33; 1 h, log[inhibitor] (M) -7.86, LanthaScreen Binding", "value": 6, "unit": "%"}, {"measurement": "inhibition at 0.004571 µM", "setting": "STK33; 1 h, log[inhibitor] (M) -[…], LanthaScreen Binding", "value": 7, "unit": "%"}, {"measurement": "Apparent fold selectivity", "setting": "STK33; IC50 on that kinase divided by IC50 on FES^S700C", "value": 254, "unit": "fold"}, {"measurement": "inhibition at 1 µM", "setting": "STK33; read-out: Inhibition at 1 µM (%), 1 µM, LanthaScreen Binding", "value": 59, "unit": "%"}, {"measurement": "inhibition at 0.1 µM", "setting": "~40 kDa protein", "value": "~10", "unit": "%"}]}]}
